Literature values, collected in patent publication US20020120149A1, “Substituted hydrazine derivatives” (priority 2000, published 2002).

Test system: NMDA receptor
Details: in vitro at concentrations at which clinical efficacy is seen

- increase in NMDA receptor activity: ~40%
SMILES: O=C(CCCN1CCC(O)(c2ccc(Cl)cc2)CC1)c1ccc(F)cc1 [haloperidol]
